Where “and” joins values, the source holds several entries; their conditions need not be identical. Identical values can stand only once.
Molecular target: T1, NPC1 (Cricetulus griseus, UniProt Q9JLG3)
T1 construct: CHO-7 cells in the medium are deprived of cholesterol to induce the LDL receptors biosynthesis; endogenous in cells; host or cells: CHO-7 cells
T1 sequence (Q9JLG3 23-1277): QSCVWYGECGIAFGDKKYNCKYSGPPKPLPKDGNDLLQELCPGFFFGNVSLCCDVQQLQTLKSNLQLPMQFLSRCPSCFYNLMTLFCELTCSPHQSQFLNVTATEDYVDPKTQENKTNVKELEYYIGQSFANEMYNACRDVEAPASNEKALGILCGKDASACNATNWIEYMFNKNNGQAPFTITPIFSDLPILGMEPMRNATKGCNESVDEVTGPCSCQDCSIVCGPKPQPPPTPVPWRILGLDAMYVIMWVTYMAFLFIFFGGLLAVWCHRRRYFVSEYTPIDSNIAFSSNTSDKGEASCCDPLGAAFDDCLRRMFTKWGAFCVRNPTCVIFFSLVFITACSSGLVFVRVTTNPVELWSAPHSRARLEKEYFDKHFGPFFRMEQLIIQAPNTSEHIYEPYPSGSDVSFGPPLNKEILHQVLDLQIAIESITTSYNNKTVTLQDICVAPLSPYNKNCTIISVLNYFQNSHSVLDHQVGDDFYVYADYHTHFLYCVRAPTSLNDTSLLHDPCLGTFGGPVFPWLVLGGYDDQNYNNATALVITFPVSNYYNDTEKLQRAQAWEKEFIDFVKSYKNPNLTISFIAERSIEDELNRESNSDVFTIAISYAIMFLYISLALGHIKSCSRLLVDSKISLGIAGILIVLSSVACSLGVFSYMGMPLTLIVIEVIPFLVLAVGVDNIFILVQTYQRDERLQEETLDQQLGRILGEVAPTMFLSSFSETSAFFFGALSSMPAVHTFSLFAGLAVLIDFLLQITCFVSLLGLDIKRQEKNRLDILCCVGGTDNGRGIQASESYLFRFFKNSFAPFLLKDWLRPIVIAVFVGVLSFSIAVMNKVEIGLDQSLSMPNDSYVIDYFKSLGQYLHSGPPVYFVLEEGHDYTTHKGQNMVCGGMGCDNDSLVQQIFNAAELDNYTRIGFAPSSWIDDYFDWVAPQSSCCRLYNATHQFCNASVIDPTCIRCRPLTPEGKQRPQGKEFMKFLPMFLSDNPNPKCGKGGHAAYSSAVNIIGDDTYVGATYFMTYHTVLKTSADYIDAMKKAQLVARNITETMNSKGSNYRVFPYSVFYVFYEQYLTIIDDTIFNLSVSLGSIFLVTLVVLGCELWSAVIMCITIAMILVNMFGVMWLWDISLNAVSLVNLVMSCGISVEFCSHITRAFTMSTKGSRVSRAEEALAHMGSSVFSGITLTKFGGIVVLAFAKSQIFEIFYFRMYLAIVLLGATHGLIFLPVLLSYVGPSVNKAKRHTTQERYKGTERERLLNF
Test: Cholesterol re-esterification (ACAT) assay measuring NPC1-mediated export of cholesterol from lysosomes in CHO-7 cells
Format: cell-based
Details: for cholesteryl [14C] oleate formed, Repeat 1 / cholesteryl [14C] oleate formed, Repeat 2: Fig. 2 source data; for cholesteryl [14C] oleate formed, Repeat 3 / cholesteryl [14C] oleate formed, Repeat 4: Supplementary Fig. 3 source data
How it was run: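 CHO-7 cells were sterol-deprived (5% LPDS, 50 µM compactin, 50 µM mevalonate), then given compounds with 10% FCS lipoproteins for 4 h at 37 °C and pulse-labeled 2 h with 0.1 mM [14C]oleate. Lipids were extracted, separated by TLC and cholesteryl [14C]oleate quantified by scintillation counting.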

## CCC(C)n1ncn(-c2ccc(N3CCN(c4ccc(OCC5COC(Cn6cncn6)(c6ccc(Cl)cc6Cl)O5)cc4)CC3)c(Br)c2)c1=O (stereo not shown) [I-Br]
0.01 uM compound
  cholesteryl [14C] oleate formed, Repeat 1: 4.59 nanomoles formed per hour per milligram cell protein
  cholesteryl [14C] oleate formed, Repeat 2: 4.968 nanomoles formed per hour per milligram cell protein
  cholesteryl [14C] oleate formed, Repeat 3: 4.668 nanomoles formed per hour per milligram cell protein
  cholesteryl [14C] oleate formed, Repeat 4: 4.998 nanomoles formed per hour per milligram cell protein
0.03 uM compound
  cholesteryl [14C] oleate formed, Repeat 1: 5.377 nanomoles formed per hour per milligram cell protein
  cholesteryl [14C] oleate formed, Repeat 2: 4.886 nanomoles formed per hour per milligram cell protein
  cholesteryl [14C] oleate formed, Repeat 3: 4.708 nanomoles formed per hour per milligram cell protein
  cholesteryl [14C] oleate formed, Repeat 4: 4.077 nanomoles formed per hour per milligram cell protein
0.06 uM compound
  cholesteryl [14C] oleate formed, Repeat 1: 4.324 nanomoles formed per hour per milligram cell protein
  cholesteryl [14C] oleate formed, Repeat 2: 4.164 nanomoles formed per hour per milligram cell protein
  cholesteryl [14C] oleate formed, Repeat 3: 4.605 nanomoles formed per hour per milligram cell protein
  cholesteryl [14C] oleate formed, Repeat 4: 3.966 nanomoles formed per hour per milligram cell protein
0.1 uM compound
  cholesteryl [14C] oleate formed, Repeat 1: 3.9836 nanomoles formed per hour per milligram cell protein
  cholesteryl [14C] oleate formed, Repeat 2: 4.202 nanomoles formed per hour per milligram cell protein
  cholesteryl [14C] oleate formed, Repeat 3: 4.772 nanomoles formed per hour per milligram cell protein
  cholesteryl [14C] oleate formed, Repeat 4: 3.292 nanomoles formed per hour per milligram cell protein
0.3 uM compound
  cholesteryl [14C] oleate formed, Repeat 1: 1.539 nanomoles formed per hour per milligram cell protein
  cholesteryl [14C] oleate formed, Repeat 2: 1.1254 nanomoles formed per hour per milligram cell protein
  cholesteryl [14C] oleate formed, Repeat 3: 1.245 nanomoles formed per hour per milligram cell protein
  cholesteryl [14C] oleate formed, Repeat 4: 1.037 nanomoles formed per hour per milligram cell protein
1 uM compound
  cholesteryl [14C] oleate formed, Repeat 1: 0.2467 nanomoles formed per hour per milligram cell protein
  cholesteryl [14C] oleate formed, Repeat 2: 0.5544 nanomoles formed per hour per milligram cell protein
  cholesteryl [14C] oleate formed, Repeat 3: 0.5005 nanomoles formed per hour per milligram cell protein
  cholesteryl [14C] oleate formed, Repeat 4: 0.5131 nanomoles formed per hour per milligram cell protein
IC50 (concentration at which each compound inhibited cholesterol esterification by 50%), 10% FCS, 4 h then 2 h [14C] oleate pulse
  IC50: 0.2 µM and ~0.2 µM

From article PMC6952396, “Structural basis for itraconazole-mediated NPC1 inhibition” (Nature Communications, 2020)
